# Values quoted from earlier work as cited in patent US20240384284A1, “FEED CROPS FOR REDUCED METHANOGENESIS IN LIVESTOCK” (Elysia Creative Biology, LLC, priority 2023, published 2024).
# Test system: methanogenesis
compound,measurement,value
BrC(Br)Br [Bromoform],in vivo methane reduction,up to 98%
